Source: paper PMC4954055, “A Self‐Assembled Respiratory Chain that Catalyzes NADH Oxidation by Ubiquinone‐10 Cycling between Complex I and the Alternative Oxidase” (Angewandte Chemie (International Ed. in English), 2015)

Target: T1, alternative oxidase (AOX) (Trypanosoma brucei, UniProt Q26710)
T1 construct: single-subunit quinol oxidase reconstituted into proteoliposomes
Test: coupled NADH:O2 oxidoreduction in CI/Q10/AOX proteoliposomes
Format: biochemical
Conditions: complex I rate determining; Q10H2 formed in the membrane by complex I

T1 sequence (Q26710 25-329): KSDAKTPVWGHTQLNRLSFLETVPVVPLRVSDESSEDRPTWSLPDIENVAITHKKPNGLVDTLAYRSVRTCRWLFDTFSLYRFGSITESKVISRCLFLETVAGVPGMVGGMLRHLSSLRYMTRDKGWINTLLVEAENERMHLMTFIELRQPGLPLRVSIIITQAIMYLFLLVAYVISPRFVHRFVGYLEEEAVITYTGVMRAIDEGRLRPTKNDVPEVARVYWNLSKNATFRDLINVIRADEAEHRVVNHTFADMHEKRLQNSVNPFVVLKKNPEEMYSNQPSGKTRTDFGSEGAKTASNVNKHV

COc1c(O)c(C)c(C/C=C(\C)CC/C=C(\C)CC/C=C(\C)CC/C=C(\C)CC/C=C(\C)CC/C=C(\C)CC/C=C(\C)CC/C=C(\C)CC/C=C(\C)CCC=C(C)C)c(O)c1OC [Q10H2]
coupled NADH:O2 oxidoreduction in CI/Q10/AOX proteoliposomes: AOX reoxidizes the Q10H2 and reduces O2 to H2O
